The subject of this data set is rodent lifetime carcinogenesis bioassay, tumor incidence TD50. Nature of the data set: chronic cancer bioassays in animals – CPDB, compiled studies (AID 1745844).

The source made the active and inactive calls. How the calls were made is not given here.

Broadly, the TD50 is the 50% point of the dose-response relation for the toxic effect studied.

As to `CCCCNC(N)=O`, the carcinogen call runs as follows: (mouse, strain C57BL/6, females, in feed, site: any site (literature study), lesion: several types, types named in the paper, dosed 52 weeks, study length 69 weeks) “negative (inactive)”; (mouse, strain C57BL/6, females, in feed, site: liver, lesion: hepatocellular carcinoma, dosed 52 weeks, study length 69 weeks) “negative (inactive)”; (mouse, strain C57BL/6, females, in feed, site: lung, lesion: adenoma, dosed 52 weeks, study length 69 weeks) “negative (inactive)”; (mouse, strain C57BL/6, males, in feed, site: liver, lesion: hepatocellular carcinoma, dosed 52 weeks, study length 69 weeks) “negative (inactive)”; (rat, strain Fischer 344, females, in feed, site: any site (literature study), lesion: several types, types named in the paper, dosed 52 weeks, study length 69 weeks) “negative (inactive)”; (rat, strain Fischer 344, females, in feed, site: liver, lesion: one or several types, types not named, dosed 52 weeks, study length 69 weeks) “negative (inactive)”. In addition, the carcinogen call runs as follows: (rat, strain Fischer 344, males, in feed, site: any site (literature study), lesion: several types, types named in the paper, dosed 52 weeks, study length 69 weeks) “negative (inactive)”; (rat, strain Fischer 344, males, in feed, site: liver, lesion: one or several types, types not named, dosed 52 weeks, study length 69 weeks) “negative (inactive)”. Moreover, the TD50 (mouse, strain C57BL/6, males, in feed, site: any site (literature study), lesion: several types, types named in the paper, dosed 52 weeks, study length 69 weeks) was 699 mg/kg/day (inactive) and the TD50 (mouse, strain C57BL/6, males, in feed, site: lung, lesion: adenoma, dosed 52 weeks, study length 69 weeks) was 5510 mg/kg/day (inactive).

Take `CC(C)N=[N+]([O-])C(C)C`: the TD50 reads like this: (rat, strain Sprague-Dawley, males, by gavage, site: liver, lesion: hepatocellular carcinoma, dosed 26 weeks, study length 77 weeks) 0.00736 mg/kg/day; (rat, strain Sprague-Dawley, males, by gavage, site: skin, lesion: keratoacanthoma, dosed 26 weeks, study length 77 weeks) 0.00268 mg/kg/day.

`Brc1cc(Br)c2cccnc2c1`: the carcinogen call (rat, strain Fischer 344, females, in feed, site: liver, lesion: hyperplastic nodule, dosed 104 weeks, study length 104 weeks) is “negative (inactive)”. In addition, the TD50 reads like this: (rat, strain Fischer 344, males, in feed, site: liver, lesion: hyperplastic nodule, dosed 104 weeks, study length 104 weeks) 754 mg/kg/day (inactive); (rat, strain Fischer 344, males, in feed, site: testis, lesion: interstitial-cell tumor, dosed 104 weeks, study length 104 weeks) 69.4 mg/kg/day (inactive).

Turning to `CN(N=O)C(N)=O`, the TD50 (monkey, strain Cynomolgus [Macaca fascicularis], both sexes, in feed, site: any site (literature study), lesion: benign tumor, dosed 928 weeks, study length 1135 weeks) turned out to be 19.1 mg/kg/day; the TD50 (monkey, strain Cynomolgus [Macaca fascicularis], both sexes, in feed, site: any site (literature study), lesion: malignant tumor, dosed 928 weeks, study length 1135 weeks) worked out at 4 mg/kg/day; the TD50 (monkey, strain Cynomolgus [Macaca fascicularis], both sexes, in feed, site: any site (literature study), lesion: several types, types named in the paper, dosed 928 weeks, study length 1135 weeks) stood at 2.64 mg/kg/day; the TD50 (monkey, strain Cynomolgus [Macaca fascicularis], both sexes, in feed, site: colon, lesion: leiomyosarcoma, dosed 928 weeks, study length 1135 weeks) was determined as 34.5 mg/kg/day; the TD50 (monkey, strain Cynomolgus [Macaca fascicularis], both sexes, in feed, site: esophagus, lesion: several types, types named in the paper, dosed 928 weeks, study length 1135 weeks) is 7.71 mg/kg/day; the TD50 (monkey, strain Cynomolgus [Macaca fascicularis], both sexes, in feed, site: esophagus, lesion: squamous-cell carcinoma, dosed 928 weeks, study length 1135 weeks) was 10.5 mg/kg/day. Also, the TD50 is, setting by setting: (monkey, strain Cynomolgus [Macaca fascicularis], both sexes, in feed, site: esophagus, lesion: squamous-cell papilloma, dosed 928 weeks, study length 1135 weeks) 29.2 mg/kg/day; (monkey, strain Cynomolgus [Macaca fascicularis], both sexes, in feed, site: heart, lesion: rhabdomyoblastoma, dosed 928 weeks, study length 1135 weeks) 66.3 mg/kg/day; (monkey, strain Cynomolgus [Macaca fascicularis], both sexes, in feed, site: oral cavity, lesion: several types, types named in the paper, dosed 928 weeks, study length 1135 weeks) 2.65 mg/kg/day; (monkey, strain Cynomolgus [Macaca fascicularis], both sexes, in feed, site: palate, soft, lesion: squamous-cell carcinoma, dosed 928 weeks, study length 1135 weeks) 7.95 mg/kg/day; (monkey, strain Cynomolgus [Macaca fascicularis], both sexes, in feed, site: pharynx, lesion: squamous-cell carcinoma, dosed 928 weeks, study length 1135 weeks) 82.2 mg/kg/day; (monkey, strain Cynomolgus [Macaca fascicularis], both sexes, in feed, site: skull, lesion: rhabdomyosarcoma, dosed 928 weeks, study length 1135 weeks) 23.9 mg/kg/day. For the same compound, the TD50 is 66.3 mg/kg/day (monkey, strain Cynomolgus [Macaca fascicularis], both sexes, in feed, site: stomach, lesion: adenocarcinoma, dosed 928 weeks, study length 1135 weeks); 7.95 mg/kg/day (monkey, strain Cynomolgus [Macaca fascicularis], both sexes, in feed, site: tongue, lesion: squamous-cell papilloma, dosed 928 weeks, study length 1135 weeks); 4.52 mg/kg/day (monkey, strain Cynomolgus [Macaca fascicularis], both sexes, in feed, site: upper gastrointestinal tract, lesion: squamous-cell carcinoma, dosed 928 weeks, study length 1135 weeks); 6.75 mg/kg/day (monkey, strain Rhesus [Macaca mulatta], both sexes, in feed, site: any site (literature study), lesion: malignant tumor, dosed 928 weeks, study length 1139 weeks); 95.6 mg/kg/day (monkey, strain Rhesus [Macaca mulatta], both sexes, in feed, site: cheek pouch, lesion: squamous-cell carcinoma, dosed 928 weeks, study length 1139 weeks); 42.8 mg/kg/day (monkey, strain Rhesus [Macaca mulatta], both sexes, in feed, site: epiglottis, lesion: squamous-cell carcinoma, dosed 928 weeks, study length 1139 weeks). The TD50 by setting is: (monkey, strain Rhesus [Macaca mulatta], both sexes, in feed, site: esophagus, lesion: squamous-cell carcinoma, dosed 928 weeks, study length 1139 weeks) 8.2 mg/kg/day; (monkey, strain Rhesus [Macaca mulatta], both sexes, in feed, site: gingiva, lesion: squamous-cell carcinoma, dosed 928 weeks, study length 1139 weeks) 62.6 mg/kg/day; (monkey, strain Rhesus [Macaca mulatta], both sexes, in feed, site: larynx, lesion: squamous-cell carcinoma, dosed 928 weeks, study length 1139 weeks) 95.6 mg/kg/day; (monkey, strain Rhesus [Macaca mulatta], both sexes, in feed, site: oral cavity, lesion: several types, types named in the paper, dosed 928 weeks, study length 1139 weeks) 15.7 mg/kg/day; (monkey, strain Rhesus [Macaca mulatta], both sexes, in feed, site: palate, soft, lesion: squamous-cell carcinoma, dosed 928 weeks, study length 1139 weeks) 102 mg/kg/day; (monkey, strain Rhesus [Macaca mulatta], both sexes, in feed, site: pharynx, lesion: squamous-cell carcinoma, dosed 928 weeks, study length 1139 weeks) 44.2 mg/kg/day. Further, the TD50 by setting is: (monkey, strain Rhesus [Macaca mulatta], both sexes, in feed, site: stomach, lesion: adenocarcinoma, dosed 928 weeks, study length 1139 weeks) 42.8 mg/kg/day; (monkey, strain Rhesus [Macaca mulatta], both sexes, in feed, site: tongue, lesion: squamous-cell carcinoma, dosed 928 weeks, study length 1139 weeks) 72.9 mg/kg/day; (monkey, strain Rhesus [Macaca mulatta], both sexes, in feed, site: upper gastrointestinal tract, lesion: squamous-cell carcinoma, dosed 928 weeks, study length 1139 weeks) 7.18 mg/kg/day; (mouse, strain C3H (MTV+), males, in drinking water, site: liver, lesion: neoplastic nodule, dosed 30 weeks, study length 54 weeks) 2.53 mg/kg/day; (mouse, strain C3H (MTV+), males, in drinking water, site: lung, lesion: adenoma, dosed 30 weeks, study length 54 weeks) 0.794 mg/kg/day; (mouse, strain C3H (MTV+), males, in drinking water, site: spleen, lesion: hemangioendothelial sarcoma, dosed 30 weeks, study length 54 weeks) 1.23 mg/kg/day. In addition, the TD50 (mouse, strain C3H (MTV+), males, in drinking water, site: stomach, glandular, lesion: adenocarcinoma, dosed 30 weeks, study length 54 weeks) is 6.19 mg/kg/day; the TD50 (rat, strain Fischer 344, males, by gavage, site: forestomach, lesion: one or several types, types not named, dosed 28 weeks, study length 104 weeks) is 0.0927 mg/kg/day; the TD50 (rat, strain Fischer 344, males, by gavage, site: liver, lesion: one or several types, types not named, dosed 28 weeks, study length 104 weeks) was found to be 11.6 mg/kg/day; the TD50 (rat, strain Fischer 344, males, by gavage, site: lung, lesion: several types, types named in the paper, dosed 28 weeks, study length 104 weeks) was 0.357 mg/kg/day; the TD50 (rat, strain Fischer 344, males, by gavage, site: nervous system, lesion: several types, types named in the paper, dosed 28 weeks, study length 104 weeks) is 2.03 mg/kg/day.

As to `NCCNc1cccc2ccccc12`, the carcinogen call was “negative (inactive)” (mouse, strain B6C3F1, females, in feed, site: any site (literature study), lesion: several types, types named in the paper, dosed 104 weeks, study length 106 weeks) and “negative (inactive)” (mouse, strain B6C3F1, males, in feed, site: any site (literature study), lesion: several types, types named in the paper, dosed 104 weeks, study length 104 weeks). Besides, the TD50 by setting is: (mouse, strain B6C3F1, females, in feed, site: liver, lesion: hepatocellular adenoma + hepatocellular carcinoma + neoplastic nodule, dosed 104 weeks, study length 106 weeks) 25600 mg/kg/day; (mouse, strain B6C3F1, females, in feed, site: lung, lesion: alveolar/bronchiolar adenoma + alveolar/bronchiolar carcinoma, dosed 104 weeks, study length 106 weeks) 4390 mg/kg/day; (rat, strain Fischer 344, females, in feed, site: liver, lesion: hepatocellular adenoma + hepatocellular carcinoma + neoplastic nodule, dosed 104 weeks, study length 107 weeks) 93.5 mg/kg/day; (rat, strain Fischer 344, females, in feed, site: liver, lesion: hepatocellular carcinoma + neoplastic nodule, dosed 104 weeks, study length 107 weeks) 93.5 mg/kg/day (inactive); (rat, strain Fischer 344, males, in feed, site: any site (literature study), lesion: several types, types named in the paper, dosed 104 weeks, study length 107 weeks) 41.6 mg/kg/day (inactive).

For `Cc1c(-c2cnccn2)ssc1=S`, the carcinogen call (rat, strain Charles River CD (Sprague-Dawley), females, by gavage, site: liver, lesion: one or several types, types not named, dosed 52 weeks, study length 52 weeks) is “negative (inactive)” and the carcinogen call (rat, strain Charles River CD (Sprague-Dawley), males, by gavage, site: liver, lesion: one or several types, types not named, dosed 52 weeks, study length 52 weeks) was “negative (inactive)”.

For `CCCc1cc(=O)[nH]c(=S)[nH]1`, the TD50 reads like this: (mouse, strain C57BL, both sexes, in feed, site: pituitary gland, lesion: adenoma, dosed 73 weeks, study length 73 weeks) 409 mg/kg/day; (rat, strain Long-Evans, males, in feed, site: thyroid gland, lesion: adenoma, dosed 52 weeks, study length 52 weeks) 10.3 mg/kg/day; (rat, strain Wistar albino, females, in drinking water, site: thyroid gland, lesion: adenoma, dosed 78 weeks, study length 78 weeks) 15.8 mg/kg/day; (rat, strain Wistar albino, females, in drinking water, site: thyroid gland, lesion: carcinoma, dosed 78 weeks, study length 78 weeks) 115 mg/kg/day; (rat, strain Wistar albino, males, in drinking water, site: thyroid gland, lesion: adenoma, dosed 78 weeks, study length 78 weeks) 17.2 mg/kg/day; (rat, strain Wistar albino, males, in drinking water, site: thyroid gland, lesion: carcinoma, dosed 78 weeks, study length 78 weeks) 79.3 mg/kg/day. In addition, the carcinogen call (rat, strain Wistar, males, in drinking water, site: thyroid gland, lesion: adenoma, dosed 26 weeks, study length 104 weeks) was “negative (inactive)”.

With `C[C@H](CCc1ccccc1)NC[C@H](O)c1ccc(O)c(C(N)=O)c1`, the carcinogen call was “negative (inactive)” (rat, strain Sprague-Dawley, females, in feed, site: heart, lesion: endocardial sarcoma, dosed 104 weeks, study length 104 weeks) and “negative (inactive)” (rat, strain Sprague-Dawley, males, in feed, site: heart, lesion: endocardial sarcoma, dosed 104 weeks, study length 104 weeks).

Source of the values: PubChem BioAssay AID1745844 (Carcinogenic Potency Database (CPDB), 2022).
